Experimental data as given in US4873237A, “2,3-dihydro- thiazolo- and thiazino- benzimidazoles as atni-hyper secretion agents” (John Wyeth & Brother Limited, priority 1983, dated 1989).

How the values were obtained:
H^+ /K^+ ATPase = biological target: T1, H^+ /K^+ ATPase (Oryctolagus cuniculus, UniProt P27112); assay: 14C-aminopyrine uptake in rabbit isolated gastric glands stimulated by DBcAMP or high K+; assay type: cell-based; details: at 10^-4 M, read-out: % Inhibition to stimulation by K^+
T1 construct: Rabbit gastric glands are isolated from gastric mucosa from the corpus region of the stomach; from tissue; host or cells: rabbit isolated gastric glands (gastric mucosa, corpus region of the stomach)
T1 sequence (P27112 2-1035 limits assumed): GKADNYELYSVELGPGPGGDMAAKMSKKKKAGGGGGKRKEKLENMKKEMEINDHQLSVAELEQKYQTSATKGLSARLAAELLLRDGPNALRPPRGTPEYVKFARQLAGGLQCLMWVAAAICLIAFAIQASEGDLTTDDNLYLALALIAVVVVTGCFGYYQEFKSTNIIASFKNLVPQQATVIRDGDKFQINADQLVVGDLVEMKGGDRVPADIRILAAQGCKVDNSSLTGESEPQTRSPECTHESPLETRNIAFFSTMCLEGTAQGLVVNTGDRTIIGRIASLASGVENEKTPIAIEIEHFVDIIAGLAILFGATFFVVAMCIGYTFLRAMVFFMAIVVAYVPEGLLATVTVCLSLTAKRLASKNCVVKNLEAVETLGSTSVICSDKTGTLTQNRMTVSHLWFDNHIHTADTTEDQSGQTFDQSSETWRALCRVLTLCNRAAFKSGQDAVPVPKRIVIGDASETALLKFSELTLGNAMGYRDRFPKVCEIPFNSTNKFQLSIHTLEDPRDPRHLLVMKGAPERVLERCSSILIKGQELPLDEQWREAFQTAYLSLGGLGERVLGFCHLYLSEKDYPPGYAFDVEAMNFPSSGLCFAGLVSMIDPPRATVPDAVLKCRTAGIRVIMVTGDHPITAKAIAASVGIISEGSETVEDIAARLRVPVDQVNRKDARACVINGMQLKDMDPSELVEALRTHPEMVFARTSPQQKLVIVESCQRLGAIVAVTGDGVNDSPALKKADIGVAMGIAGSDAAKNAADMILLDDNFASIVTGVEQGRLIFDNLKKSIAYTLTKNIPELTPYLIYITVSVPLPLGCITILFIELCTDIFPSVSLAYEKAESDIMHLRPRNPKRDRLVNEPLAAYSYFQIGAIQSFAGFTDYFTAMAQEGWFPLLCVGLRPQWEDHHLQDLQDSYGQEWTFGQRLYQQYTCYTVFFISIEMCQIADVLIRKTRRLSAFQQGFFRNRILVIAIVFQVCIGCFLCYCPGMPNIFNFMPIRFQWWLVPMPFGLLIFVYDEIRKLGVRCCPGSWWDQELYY
T1 sequence (P18597 whole entry partner): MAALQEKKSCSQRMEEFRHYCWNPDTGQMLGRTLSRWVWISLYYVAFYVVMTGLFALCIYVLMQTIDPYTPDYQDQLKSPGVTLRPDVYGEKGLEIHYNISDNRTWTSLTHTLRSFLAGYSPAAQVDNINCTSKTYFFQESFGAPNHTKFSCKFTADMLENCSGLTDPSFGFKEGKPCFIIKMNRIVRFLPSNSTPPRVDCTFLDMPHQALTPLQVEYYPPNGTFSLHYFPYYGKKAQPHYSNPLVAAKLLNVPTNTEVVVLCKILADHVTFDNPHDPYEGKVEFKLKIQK
Experimental: Compounds of formula I were also tested for anti-secretory activity by their ability to inhibit the highly specific proton transporting enzyme H^+ /K^+ ATPase.
Potential H^+ /K^+ ATPase inhibitors were evaluated by a technique involving the measurement of aminopyrine accumulation in rabbit isolated gastric glands. Aminopyrine accumulates in acid-secreting cells; therefore, uptake of aminopyrine is increased by secretagogues and an inhibitor of acid secretion will reduce the response to one or more secretagogues depending upon its site of action. Compounds which reduce the response to dibutyryl cyclic adenosine monophosphate (DBcAMP) stimulation are assumed to have an intracellular site of action; and those which reduce the response to both DBcAMP and high potassium ion concentration (K^+) are thought to have an intracellular site of action at the secretory surface of the parietal cell, involving the highly specific proton-transporting enzyme, H^+ /K^+ ATPase.
The following test procedure is used: […]
Compounds are tested at a concentration of 10^-4 M, initially, and in some cases at lower concentrations, for their ability to inhibit ^14 C-aminopyrine uptake in gastric glands, stimulated by DBcAMP and high K^+ respectively. Results are expressed as the % inhibition of the maximum response to the secretagogue induced by the test compound. […]

Male rats = assay: stress-induced erosion test of Senay and Levine (anti-ulcer activity); assay type: in vivo; details: dosed orally, cold restraint 3 hours
Experimental: Anti-ulcer activity was determined by the stressinduced erosion test of Senay and Levine, Proc. Soc. Exp. Biol. Med., 124, 1221-3 (1967). The procedure used was as follows.
Male rats, weighing between 80 and 120 gms. were fasted overnight with water ad lib. The rats were then divided into groups of six and dosed orally with the test drug in the form of a solution or with the vehicle alone, 0.5% carboxymethylcellulose, in a volume of 10ml/kg.
After 30 minutes the rats were inserted into aluminium restraining tubes measuring 15/8 inches in diameter by 5 inches and placed in the cold (4±1° C.) for 3 hours. Immediately after cold exposure the rats were killed with intracranial alcohol and their stomachs excised and opened along the greater curvature. Each stomach was washed gently free of contents with warm tap water and pinned out on a board. The condition of the gastric mucosa was then scored from 0 to 6 on the following scale:
The maximum possible score for each animal was 6 and for the group 36. Decrease in ulcer formation was calculated as a percentage of the control score, i.e. [formula] The statistical significance of the effect is assessed by Student's t-test.

| inhibition at 100 µM (H^+ /K^+ ATPase) [%] | SMILES | Inhibition (decrease in ulcer formation as percentage of control score) (Male rats; dose 30 mg/kg) [%] | Inhibition (decrease in ulcer formation as percentage of control score) (Male rats; dose 100 mg/kg) [%] |
| --- | --- | --- | --- |
| 74 | Clc1cc2nc3n(c2cc1Cl)CC(c1ccccn1)S3 (centres unmarked) [Example 8, 6,7-Dichloro-2,3-dihydro-2-(2-pyridyl)thiazolo[3,2-a]benzimidazole] | – | – |
| – | c1ccc(C2Cn3c(nc4ccccc43)S2)nc1 (centres unmarked) [Example 1, 2,3-Dihydro-2-(2-pyridyl)thiazolo[3,2-a]benzimidazole] | 86 | 75 |
| – | Cc1cc2nc3n(c2cc1C)CC(c1ccccn1)S3 (centres unmarked) [Example 9, 2,3-Dihydro-6,7-dimethyl-2-(2-pyridyl)thiazolo[3,2-a]benzimidazole] | – | 82 |
| – | c1ccc(C2Cn3c(nc4ccccc43)S2)cc1 (centres unmarked) [Example 3, 2,3-Dihydro-2-phenylthiazolo[3,2-a]benzimidazole] | – | 74 |
